Reference: US20200079793A1, “COMPOUNDS AND METHODS FOR MODULATING ADENOSINE A2B RECEPTOR AND ADENOSINE A2A RECEPTOR” (CORVUS PHARMACEUTICALS, INC., priority 2018, published 2020)

Experiments:
[1] = target: T1, A1R (Homo sapiens, UniProt P30542); assay: Activity assay of adenosine receptor modulators, A1R cAMP (Table 1); type: cell-based
T1 sequence (P30542 1-326): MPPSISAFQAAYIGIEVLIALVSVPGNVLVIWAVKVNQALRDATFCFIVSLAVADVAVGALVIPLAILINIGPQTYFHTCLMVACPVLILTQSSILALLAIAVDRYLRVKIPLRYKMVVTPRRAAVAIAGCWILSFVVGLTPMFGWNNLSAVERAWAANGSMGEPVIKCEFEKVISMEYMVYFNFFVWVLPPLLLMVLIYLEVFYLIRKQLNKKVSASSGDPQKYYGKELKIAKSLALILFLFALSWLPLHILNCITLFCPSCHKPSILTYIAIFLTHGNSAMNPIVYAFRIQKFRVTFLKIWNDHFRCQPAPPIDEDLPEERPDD
Experimental: (§1) Compounds (e.g., adenosine receptor modulators) were tested for its biological activity. The assay results in Table 1 indicate (+ means >1 μM; ++ means 100 nM to 1 μM; +++ means <100 nM).

[2] = target: Adenosine A2A Receptor (Homo sapiens, UniProt P29274); assay: Activity assay of adenosine receptor modulators, Adenosine A2A Receptor (Table 1); type: biochemical; conditions: cAMP; read-out: A2AR cAMP IC50
Chain of Adenosine A2A Receptor (P29274 whole entry): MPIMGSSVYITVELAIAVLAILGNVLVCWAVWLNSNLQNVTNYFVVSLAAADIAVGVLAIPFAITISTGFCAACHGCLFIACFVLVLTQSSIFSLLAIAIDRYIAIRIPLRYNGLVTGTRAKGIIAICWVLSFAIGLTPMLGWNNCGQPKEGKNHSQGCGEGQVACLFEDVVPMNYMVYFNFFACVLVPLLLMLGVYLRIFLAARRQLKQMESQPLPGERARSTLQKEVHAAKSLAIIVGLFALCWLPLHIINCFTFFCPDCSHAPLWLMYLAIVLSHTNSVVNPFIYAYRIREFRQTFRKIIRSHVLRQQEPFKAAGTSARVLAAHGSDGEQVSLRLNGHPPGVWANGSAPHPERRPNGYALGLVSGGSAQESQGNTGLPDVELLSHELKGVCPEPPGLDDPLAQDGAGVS
Experimental: as §1

[3] = target: T2, A3R (Homo sapiens, UniProt P0DMS8); assay: Activity assay of adenosine receptor modulators, A3R cAMP (Table 1); type: cell-based
T2 sequence (P0DMS8 1-318): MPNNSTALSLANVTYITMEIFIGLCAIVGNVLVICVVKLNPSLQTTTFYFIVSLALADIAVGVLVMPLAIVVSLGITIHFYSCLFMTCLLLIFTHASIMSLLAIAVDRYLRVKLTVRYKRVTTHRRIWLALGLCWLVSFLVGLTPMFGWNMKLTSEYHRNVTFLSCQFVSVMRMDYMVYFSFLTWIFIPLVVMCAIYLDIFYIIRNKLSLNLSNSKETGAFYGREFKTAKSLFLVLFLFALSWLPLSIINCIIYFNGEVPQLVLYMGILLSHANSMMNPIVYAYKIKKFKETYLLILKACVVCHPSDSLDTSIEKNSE
Experimental: as §1

[4] = target: T3, Adenosine A2B Receptor (Homo sapiens, UniProt P29275); assay: Activity assay of adenosine receptor modulators, Adenosine A2B Receptor (Table 1); type: biochemical; conditions: cAMP; read-out: A2BR cAMP IC50
T3 sequence (P29275 1-332): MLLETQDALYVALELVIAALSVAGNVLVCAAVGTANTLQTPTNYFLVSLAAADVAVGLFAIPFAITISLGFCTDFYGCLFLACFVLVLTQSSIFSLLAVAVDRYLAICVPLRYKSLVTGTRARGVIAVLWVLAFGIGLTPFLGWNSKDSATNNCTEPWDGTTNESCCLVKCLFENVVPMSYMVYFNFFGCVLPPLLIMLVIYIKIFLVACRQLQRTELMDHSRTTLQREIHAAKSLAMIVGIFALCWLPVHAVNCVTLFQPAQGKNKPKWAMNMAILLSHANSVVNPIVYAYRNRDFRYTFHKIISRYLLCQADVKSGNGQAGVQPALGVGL
Experimental: as §1

IC50 [1] [µM]	IC50 [2] [µM]	IC50 [3] [µM]	IC50 [4] [µM]	SMILES
> 1	0.1 to 1	0.1 to 1	< 0.1	Cc1nc2nc(N[C@@H](C)c3cncc(F)c3)nc(C(=O)N3CCCC3)c2s1 [Example 1, (S)-(5-((1-(5-Fluoropyridin-3-yl)ethyl)amino)-2-methylthiazolo[4,5-d]pyrimidin-7-yl)(pyrrolidin-1-yl)methanone]
> 1	0.1 to 1	0.1 to 1	< 0.1	Cc1nc2nc(N[C@@H](C)c3cncc(F)c3)nc(C(=O)N3CCC3)c2s1 [Example 2, (S)-Azetidin-1-yl(5-((1-(5-fluoropyridin-3-yl)ethyl)amino)-2-methylthiazolo[4,5-d]pyrimidin-7-yl)methanone]
0.1 to 1	0.1 to 1	0.1 to 1	< 0.1	Cc1nc2nc(N[C@@H](C)c3cncc(F)c3)nc(C(=O)NC[C@@H](C)O)c2s1 [Example 3, 5-(((S)-1-(5-Fluoropyridin-3-yl)ethyl)amino)-N—((R)-2-hydroxypropyl)-2-methylthiazolo[4,5-d]pyrimidine-7-carboxamide]
> 1	> 1	> 1	< 0.1	Cc1nc2nc(N[C@@H](C)c3cncc(F)c3)nc(C(=O)N3CC[C@H](O)C3)c2s1 [Example 4, (5-(((S)-1-(5-Fluoropyridin-3-yl)ethyl)amino)-2-methylthiazolo[4,5-d]pyrimidin-7-yl)((S)-3-hydroxypyrrolidin-1-yl)methanone]
0.1 to 1	> 1	0.1 to 1	< 0.1	Cc1nc2nc(N[C@@H](C)c3cncc(F)c3)nc(C(=O)NC[C@H](C)O)c2s1 [Example 5, 5-(((S)-1-(5-Fluoropyridin-3-yl)ethyl)amino)-N—((S)-2-hydroxypropyl)-2-methylthiazolo[4,5-d]pyrimidine-7-carboxamide]
> 1	0.1 to 1	0.1 to 1	< 0.1	Cc1nc2nc(N[C@@H](C)c3cccnc3)nc(C(=O)N3CCCC3)c2s1 [Example 6, (S)-(2-Methyl-5-((1-(pyridin-3-yl)ethyl)amino)thiazolo[4,5-d]pyrimidin-7-yl)(pyrrolidin-1-yl)methanone]
> 1	0.1 to 1	> 1	< 0.1	Cc1nc2nc(N[C@@H](C)c3cncc(F)c3)nc(C(=O)N3CC[C@@H](O)C3)c2s1 [Example 7, (5-(((S)-1-(5-Fluoropyridin-3-yl)ethyl)amino)-2-methylthiazolo[4,5-d]pyrimidin-7-yl)((R)-3-hydroxypyrrolidin-1-yl)methanone]
> 1	0.1 to 1	0.1 to 1	< 0.1	Cc1nc2nc(N[C@@H](C)c3ccccn3)nc(C(=O)N3CCC3)c2s1 [Example 8, (S)-Azetidin-1-yl(2-methyl-5-((1-(pyridin-2-yl)ethyl)amino)thiazolo[4,5-d]pyrimidin-7-yl)methanone]
	0.1 to 1		< 0.1	Cc1nc2nc(N[C@@H](C)c3ccccn3)nc(C(=O)NC(C)C)c2s1 [Example 10, (S)—N-Isopropyl-2-methyl-5-((1-(pyridin-2-yl)ethyl)amino)thiazolo[4,5-d]pyrimidine-7-carboxamide]
	> 1		< 0.1	Cc1nc2nc(N[C@@H](C)c3ccccn3)nc(C(=O)N3CC[C@@H](O)C3)c2s1 [Example 19, ((R)-3-Hydroxypyrrolidin-1-yl)(2-methyl-5-(((S)-1-(pyridin-2-yl)ethyl)amino)thiazolo[4,5-d]pyrimidin-7-yl)methanone]
	> 1		0.1 to 1	C[C@H](Nc1nc(C(=O)N2CCCC2)c2sc(N)nc2n1)c1cccnc1 [Example 20, (S)-(2-Amino-5-((1-(pyridin-3-yl)ethyl)amino)thiazolo[4,5-d]pyrimidin-7-yl)(pyrrolidin-1-yl)methanone]
	> 1		0.1 to 1	Cc1nc2nc(N[C@@H](C)c3cncc(F)c3)nc(C(=O)NCCC3CCN(C(=O)OC(C)(C)C)CC3)c2s1 [Example 22, tert-Butyl (S)-4-(2-(5-((1-(5-fluoropyridin-3-yl)ethyl)amino)-2-methylthiazolo[4,5-d]pyrimidine-7-carboxamido)ethyl)piperidine-1-carboxylate]
	0.1 to 1		< 0.1	Cc1nc2nc(N[C@@H](C)c3cncc(F)c3)nc(C(=O)NCc3cccnc3)c2s1 [Example 23, (S)-5-((1-(5-Fluoropyridin-3-yl)ethyl)amino)-2-methyl-N-(pyridin-3-ylmethyl)thiazolo[4,5-d]pyrimidine-7-carboxamide]
	> 1		< 0.1	Cc1nc2nc(N[C@@H](C)c3cncc(F)c3)nc(C(=O)N3CC(C(=O)N(C)C)C3)c2s1 [Example 26, (S)-1-(5-((1-(5-Fluoropyridin-3-yl)ethyl)amino)-2-methylthiazolo[4,5-d]pyrimidine-7-carbonyl)-N,N-dimethylazetidine-3-carboxamide]
	0.1 to 1		0.1 to 1	Cc1nc2nc(N[C@@H](C)c3cccnc3)nc(C(=O)N[C@@H](C)c3cccnc3)c2s1 [Example 27, 2-Methyl-N—((S)-1-(pyridin-3-yl)ethyl)-5-(((S)-1-(pyridin-3-yl)ethyl)amino)thiazolo[4,5-d]pyrimidine-7-carboxamide]
	> 1		0.1 to 1	Cc1nc2nc(N[C@@H](C)c3cncc(F)c3)nc(C(=O)N3CCN(C(=O)CC(C)(C)C)C3)c2s1 [Example 34, (S)-1-(3-(5-((1-(5-Fluoropyridin-3-yl)ethyl)amino)-2-methylthiazolo[4,5-d]pyrimidine-7-carbonyl)imidazolidin-1-yl)-3,3-dimethylbutan-1-one]
	0.1 to 1		0.1 to 1	Cc1nc2nc(N[C@@H](C)c3cncc(F)c3)nc(C(=O)N3CCN(C(=O)NC(C)(C)C)C3)c2s1 [Example 35, (S)—N-(tert-Butyl)-3-(5-((1-(5-fluoropyridin-3-yl)ethyl)amino)-2-methylthiazolo[4,5-d]pyrimidine-7-carbonyl)imidazolidine-1-carboxamide]
	0.1 to 1		> 1	Cc1nc2nc(N[C@@H](C)c3cncc(F)c3)nc(C(=O)NCCNC(=O)NC(C)(C)C)c2s1 [Example 36, (S)—N-(2-(3-(tert-butyl)ureido)ethyl)-5-((1-(5-fluoropyridin-3-yl)ethyl)amino)-2-methylthiazolo[4,5-d]pyrimidine-7-carboxamide]
	> 1		0.1 to 1	Cc1nc2nc(N[C@@H](C)c3cncc(F)c3)nc(C(=O)N3CC[C@@H](N)C3)c2s1 [Example 42, ((R)-3-Aminopyrrolidin-1-yl)(5-(((S)-1-(5-fluoropyridin-3-yl)ethyl)amino)-2-methylthiazolo[4,5-d]pyrimidin-7-yl)methanone]
	> 1		0.1 to 1	Cc1nc2nc(N[C@@H](C)c3cncc(F)c3)nc(C(=O)N3CC[C@H](N)C3)c2s1 [Example 43, ((S)-3-Aminopyrrolidin-1-yl)(5-(((S)-1-(5-fluoropyridin-3-yl)ethyl)amino)-2-methylthiazolo[4,5-d]pyrimidin-7-yl)methanone]
	> 1		0.1 to 1	CC(=O)N(C)C1CN(C(=O)c2nc(N[C@@H](C)c3cncc(F)c3)nc3nc(C)sc23)C1 [Example 44, (S)—N-(1-(5-((1-(5-Fluoropyridin-3-yl)ethyl)amino)-2-methylthiazolo[4,5-d]pyrimidine-7-carbonyl)azetidin-3-yl)-N-methylacetamide]
	0.1 to 1		0.1 to 1	Cc1nc2nc(N[C@@H](C)c3cncc(F)c3)nc(C(=O)N3CC(NC(=O)C4CCOC4)C3)c2s1 (stereo partly drawn) [Example 45, N-(1-(5-(((S)-1-(5-Fluoropyridin-3-yl)ethyl)amino)-2-methylthiazolo[4,5-d]pyrimidine-7-carbonyl)azetidin-3-yl)tetrahydrofuran-3-carboxamide]
	> 1		0.1 to 1	Cc1nc2nc(N[C@@H](C)c3cncc(F)c3)nc(C(=O)NCCN3CCOCC3)c2s1 [Example 46, (S)-5-((1-(5-Fluoropyridin-3-yl)ethyl)amino)-2-methyl-N-(2-morpholinoethyl)thiazolo[4,5-d]pyrimidine-7-carboxamide]
